Data published in US20250057963A1, “DISCOVERY OF PIPERLONGUMINE AS A NOVEL E3 LIGASE LIGAND” (University of Florida Research Foundation, Incorporated, priority 2021, published 2025).
“Also recorded” adds a separate entry of the source.

Columns and labels:
[1] = system: LNCaP prostate cancer cells and H1299 lung cancer cells; assay: Cell killing (MTS) with or without KEAP1 siRNA knockdown; type: cell-based, Human; details: KEAP1 siRNA vs control siRNA 48 h; compound 0.1 mM (LNCaP) or 0.3 mM (H1299) for 24 h
Experimental: FIGS. 19A to 19B show percentages of cell killing in LNCaP (FIG. 19A) and H1299 (FIG. 19B) cells with or without KEAP1 knockdown. LNCaP and H1299 cells were treated with control siRNA or siRNAs targeting KEAP1 for 48 h and then reseeded and treated with indicated compound (0.1 mM for LNCaP cells and 0.3 mM for H1299 cells) for 24 h. The cell viability was then determined by MTS assay. The data are presented as mean±SD from three replicate cell cultures in a representative experiment. Data are representative of two independent experiments. Statistical significance was calculated with unpaired two-tailed Student's t-tests. **P<0.01; ***P<0.001; NS: not significant.
Viability (MTS) assays in various cancer cells followed the methods described in our previous report (Khan et al., 2019). The data were expressed as average % cell viability and fitted in non-linear regression curves using GraphPad Prism 9 (GraphPad Software, La Jolla, CA, USA).

[2] = system: LNCaP, 22RV1, PC3 and DU145 prostate cancer cell lines; assay: Viability (MTS) assay in prostate cancer cell lines; type: cell-based, Human; details: all four cell lines LNCaP, 22RV1, PC3, DU145; MTS, 72 h treatment
Experimental: All the cell lines were maintained in a humidified incubator at 37° C. and 5% CO2. […] The data were expressed as average % cell viability and fitted in non-linear regression curves using GraphPad Prism 9 (GraphPad Software, La Jolla, CA, USA).

CDK9 = CDK9 (Homo sapiens, UniProt P50750); assay: TMT-based global proteomics in MOLT4 cells; type: cell-based; parameters: endogenous in cells; host or cells: MOLT4
Excerpt: Sample Preparation and LC-MS/MS analysis. Total protein from cell pellets was reduced, alkylated, and purified by chloroform/methanol extraction prior to digestion with sequencing grade modified porcine trypsin (Cat. No. V5111, Promega). Tryptic peptides were labeled using tandem mass tag isobaric labeling reagents (Cat. No. A34808, ThermoFisher) following the manufacturer's instructions and combined into one 11-plex sample group. The labeled peptide multiplex was separated into 46 fractions on a 100×1.0 mm Acquity BEH C18 column (Waters) using an UltiMate 3000 UHPLC system (Thermo) with a 50 min gradient from 99:1 to 60:40 bufferA:B (Buffer A: 0.1% formic acid, 0.5% acetonitrile; Buffer B: 0.1% formic acid, 99.9% acetonitrile. Both buffers adjusted to pH 10 with ammonium hydroxide for offline separation) ratio under basic pH conditions, and then consolidated into 18 super-fractions. […]
Data processing and analysis. Proteins were identified and MS3 reporter ions quantified using MaxQuant (version 2.0.3.0; Max Planck Institute) against the Homo sapiens UniprotKB database (March 2021) with a parent ion tolerance of 3 ppm, a fragment ion tolerance of 0.5 Da, and a reporter ion tolerance of 0.003 Da. Scaffold Q+S (Proteome Software) was used to verify MS/MS based peptide and protein identifications (protein identifications were accepted if they could be established with less than 1.0% false discovery and contained at least 2 identified peptides; protein probabilities were assigned by the Protein Prophet algorithm (Nesvizhskii et al., 2003) and to perform reporter ion-based statistical analysis. Protein TMT MS3 reporter ion intensity values were assessed for quality using ProteiNorm for a systematic evaluation of normalization methods (Graw et al., 2020). Cyclic loess normalization (Ritchie et al., 2015) was utilized since it had the highest intragroup correlation and the lowest variance amongst the samples. […]

Sequence of CDK9 (P50750 whole entry): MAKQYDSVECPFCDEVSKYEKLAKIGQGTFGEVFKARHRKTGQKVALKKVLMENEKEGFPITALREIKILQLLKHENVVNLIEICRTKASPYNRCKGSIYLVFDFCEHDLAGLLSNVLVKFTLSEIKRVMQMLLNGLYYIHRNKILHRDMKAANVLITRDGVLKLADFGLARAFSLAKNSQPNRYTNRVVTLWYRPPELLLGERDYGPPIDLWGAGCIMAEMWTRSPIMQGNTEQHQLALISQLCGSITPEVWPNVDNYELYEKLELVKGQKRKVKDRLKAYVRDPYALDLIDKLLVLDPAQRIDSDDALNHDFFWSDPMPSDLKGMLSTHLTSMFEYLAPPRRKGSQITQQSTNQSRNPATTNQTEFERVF

EC50, anti-proliferation [2]: single digital nM range
Compound: COc1cc(/C=C/C(=O)N2CCC=CC2=O)cc(OC)c1OCCN1CCN(C(=O)CN2CCC(C(=O)Nc3ncc(SCc4ncc(C(C)(C)C)o4)s3)CC2)CC1 [compound 955, (E)-N-(5-(((5-(tert-butyl)oxazol-2-yl)methyl)thio)thiazol-2-yl)-1-(2-(4-(2-(2,6-dimethoxy-4-(3-oxo-3-(6-oxo-3,6-dihydropyridin-1(2H)-yl)prop-1-en-1-yl)phenoxy)ethyl)piperazin-1-yl)-2-oxoethyl)piperidine-4-carboxamide]
effect of KEAP1 knockdown on cytotoxicity of the compound [1]: attenuated the cytotoxicity
proteins degraded or downregulated after short treatment (global proteome) (CDK9; 0.1 μM 955, 1 hour): only degraded CDK9 and CDK10 and downregulated one downstream protein FYTTD1
CDK9 protein level (global proteome) (CDK9; 0.1 μM 955 for 1 h and 6 h, 1 μM SNS-032 for 6 h): reduced the protein level of CDK9; also recorded: significant reduction of CDK9
